Experimental data as given in patent publication US5312928A, “Calcium channel antagonists and methodology for their identification” (priority 1991, dated 1994).
pIC50: −log10 of the molar value. Entries after “also recorded” stand apart in the source; their conditions may differ.

Tests used:
[1] = test system: L-type calcium channels (GH4 C1 cells); test: Microscreen assay: K+-stimulated 45Ca uptake by GH4C1 clonal pituitary cells; type: cell-based, rat
Protocol: Frozen crude venom (40 μl) was thawed on ice and mixed with 210 μl of ice-cold 0.1% trifluoroacetic acid (TFA) in H2 O. The solution was centrifuged at room temperature for 5 min. at 13,000 rpm with an Eppendorf Centrifuge, and 240 μl of the supernatant was applied to a reversed-phase C18 HPLC column (100×250 mm, 5 μm bead size, 100 Å pore size, prepacked NGA column from The NEST Group). HPLC was performed using an acetonitrile gradient of 0 to 30% in 0.1% TFA in 105 min. at a flow rate of 4.0 ml/min. The elution was monitored by absorbance at 214 nm and 254 nm, and the fractions were collected manually according to the elution profile. Samples representing 5% of each fraction (corresponding to 2 μl crude venom per sample) were dried by Speed Vac (Savant), suspended in a buffer, and tested for their ability to block ^45 Ca^+ 2 influx into rat GH4C1 cells (see "Microscreen Assay for L-Type Calcium Channel Blockers" below).
Microscreen Assay for L-Type Calcium Channel Blockers
The rat GH4 C1 pituitary cells, a widely available cell line obtained from Dr. Armen Tashjian, Harvard Medical School, was used to measure effect of DOC preparations on calcium influx into cells.
Cell stocks were kept frozen in liquid nitrogen until needed. One ampule was thawed and then seeded onto a T-75 culture flask and grown to confluency. Thereafter, the cells were treated with a 1% trypsin solution in Hanks and replated onto T-25 culture flasks at different dilutions. Stocks were then kept growing and split as needed rather than refrozen. The medium used was Ham's F-10 supplied by Media-Tech containing 10% heat-inactivated fetal calf serum purchased from Hyclone. In general, the best response was obtained from 3-5 day post-confluent cells.
Cell suspension from one T-25 flask was prepared as follows for experiments. The flask was gently washed 2× with Hanks. 10 ml of warm 0.02% EDTA-Hanks was added to the flask and allowed to stand for approximately 30 seconds. The plate was sloshed, inverted and banged on a hard surface to dislodge the cells. 0.6 ml CMT-Hanks was immediately added and sloshed. The cells were then transferred to a 15 ml centrifuge tube and spun for 20-30 seconds at 50 g (700 RPM).
With a pipette, the supernatant was gently aspirated and resuspended by triturating the pellet in 0.4 ml HBBS. The cells were then transferred to a 4 ml flat bottom glass vial with a magnetic flea and stirred at the slowest speed.
Thereafter, low K^+ or high K^+ 4.2 μl ^45 Ca stock [eq. to 2 uCi/4.2 μl cells] was added to the tube and incubation was continued for 1 min. 790 μl HBBS was added to quench calcium uptake by the cells. The mixture was then pipetted up and down 2× before it was subjected to filtration in an Amicon filter manifold with a Whatman glass fiber filter. The filter was rinsed 5× with 5 ml HBBS buffer each. It is important that the buffer be squirted at the side of the chimney, straight down and not directly at the filter, since this may wash cells back up off the filter and onto the chimney. It is also important not to cause a whirlpool effect with the wash and create uneven rinsing of the filter.
A separate chimney for each well was used and each chimney was washed after use.
About 1 min. after the rinse, the chimney was removed to relieve the filter of suction to minimize loss of counts due to cell disruption. A set of four blanks (i.e., measurements using the same solutions but without cells) was run at the end of the assay to determine the background counts.

[2] = test system: DHP-resistant R-channels (N1E-115 cells); type: cell-based, murine
[3] = test system: dihydropyridine binding sites on the L-type calcium channels; conditions: up to 0.6 units/ml; rat brain membranes
Excerpt: Other compounds which act through the same binding site as the dihydropyridines will inhibit this [^3 H]nimodipine binding.

[4] = test system: L-channels? (cortical neurons); test: Block of K-stimulated 45Ca uptake, cortical neurons; type: cell-based
Excerpt: Summarized in the Table below are results of experiments designed to study the effect of DOC1 on calcium channels by calcium 45 uptake measurement and electrophysiological method, both of which are described above.

[5] = test system: synaptosomal calcium channels; test: Microscreen assay: K+-stimulated 45Ca uptake by synaptosomes; type: biochemical, rat
Protocol: The screening method used to test calcium blocking activity in GH4 C1 cells of venom preparations, as described above, was modified as follows for determining the effect of DOC1 on synaptosomal calcium uptake.
After the buffers were made, the osmolarity of the quench buffer was adjusted by dilution with ddH2 O to approximately equal to the average of the osmolarities of the other 3 buffers. All the buffers were made up in ddH^2 O only.
For basal uptake: 5 μl NEN stock+995 μl low K+Ca buffer.
For depolarized (i.e., high K^+) uptake: 5 μl NEN+995 μl high K+Ca buffer.
The synaptosome preparation described below was an adoption of a published procedure. [Hajos F., Brain Res. 93:485-489 (1975)].
Basal buffer used was of the following composition: Basal buffer, pH 7.4, was of following composition: NaCl 147 mM, KCl 3 mM, HEPES 10 mM, Dextrose 10 mM, MgCl2 1.2 mM, and EGTA-Tris 1 mM. The high-K^+ buffer was the same as the basal buffer except that concentrations of NaCl and KCl were 95 mM and 55 mM, respectively.
Synaptosomes were prepared from CD male rats of 4 to 6 weeks (50-75 g). Rats were killed by decapitation with guillotine, and the skull bone was opened in the center with the pointed blade of dissection scissors. The bone was then peeled away with a bone cutter and the brain pried with a micro spatula. […]

[6] = test system: Na current, N1E-115 cells; type: cell-based, murine
[7] = test system: T-type calcium channels (N1E-115 cells); type: cell-based, murine
[8] = test system: L-type calcium channels (GH4 C1 cells); test: Whole-cell voltage-clamp electrophysiology, GH4 C1 cells; type: cell-based, rat
[9] = test system: K currents, N1E-115 cells; type: cell-based, murine; conditions: @ 1 U/ml
L-type channels = conditions: characteristic of dihydropyridines, background; read-out: IC50 for L-channel block; cited from earlier work
stroke = conditions: cited from earlier work

NCCCNCCCNCCCNCCCCCNC(=O)Cc1c[nH]c2cccc(O)c12 [DOC1]
relative potency DOC1 vs DOC3 in blocking calcium uptake ([1]; FIG. 6, DOC1 compared with DOC3): several-fold more potent than DOC3
activity in the 45Ca2+ influx assay / block of potassium-stimulated calcium uptake (in words) ([1]; GH4 C1 clonal pituitary cells): blocked potassium-stimulated calcium uptake; also recorded: active; also recorded: possess calcium blocking activity
Block of DHP-sensitive L-type channels, GH4 C1 clonal pituitary cells, 45Ca uptake, IC50 ([1]; consistent inhibitory effects, IC50 varied among GH4 C1 cultures): 0.4-1.5 units/ml
Block of DHP-resistant R-channels, N1E-115 cells (electrophys), IC50 [2]: 0.4 units/ml
concentration yielding half-maximal inhibition of high-threshold current remaining after nimodipine ([2]; 10 μM nimodipine, maximum block 45%, FIG. 12): 0.37 U/ml
inhibition of high-threshold current in continuous presence of nimodipine (in words) ([2]; 1.0 U/ml DOC1, 10 μM nimodipine, FIG. 11A, 11B): inhibition of the high-threshold current; also recorded: blocks high-threshold current
reversibility and dose-dependence of the actions ([2]; upon washout): reversible upon washout and were dose-dependent
inhibition of [3H]nimodipine binding (in words) [3]: no significant inhibition; also recorded: no inhibition of nimodipine binding
Block of K-stimulated 45Ca uptake (L-channels?), cortical neurons, IC50 ([4]; IC50 varied among sensitive cultures): 0.1-0.4 units/ml
sensitivity of cortical neuron cultures (in words) ([4]; some cultures of cortical neurons): insensitive
inhibition of K+-stimulated calcium uptake by synaptosomes ([5]; concentrations up to 0.5 units/ml, not more than about 30%): ≤ 30%
block of synaptosomal calcium channels (in words) ([5]; in comparison with block of L-type channels in GH4 C1 cells): substantially less effective and potent
specificity for Ca channels over Na or K channels (in words) ([6]; Na or K channels, N1E-115 cells): striking specificity
selectivity for Ca versus Na currents ([6]; on the order of): two
Block of Na current, N1E-115 cells, IC50 ([6]; words in the IC50 column): not signif.
effect on T-type current (in words) ([7]; evoked by weak depolarizations from negative holding potentials, FIG. 11C): did not substantially affect the T-type current; also recorded: no block of putative T-type channels was observed; also recorded: little effect on T-type current
Block of low threshold, inactivating (T?) channels, N1E-115 cells (electrophysiol), IC50 ([7]; words in the IC50 column): none
block of current through calcium channels, GH4 C1 cells ([8]; 0.4-1.0 U/ml, depolarizations to between -10 and +20 mV): up to 80%
reversibility of block of calcium channel current, GH4 C1 cells ([8]; FIG. 10): reversibly blocked; also recorded: capable of reversibly blocking electrical current
Block of DHP-sensitive L-type channels, GH4 C1 clonal pituitary cells, electrophysiol, IC50 ([8]; puff application): 1.5 units/ml
Block of K currents, N1E-115 cells [9]: 12%

COC(=O)C1=C(C)NC(C)=C(C(=O)OC)C1c1ccccc1[N+](=O)[O-] [nifedipine]
pIC50 (L-type channels): > 6.00

COCCOC(=O)C1=C(C)NC(C)=C(C(=O)OC(C)C)C1c1cccc([N+](=O)[O-])c1 (stereo not shown) [nimodipine]
pIC50 (L-type channels): > 6.00
cardiovascular side effects (stroke; background statement): significant cardiovascular side effects
improvement in the outcome of stroke in clinical trials (stroke; clinical trials, Gelmers et al. 1988): Modest improvement in the outcome of stroke
